Assay results taken from ChEMBL document CHEMBL6087472, “Development and Discovery of a Selective Degrader of Casein Kinases 1 δ/ε” (J Med Chem, 2025).
The source made the active and inactive calls. The calls are words filed in the database; no cut-off is given here.

Legend:
[1] = target: T1, von Hippel-Lindau disease tumor suppressor/Casein kinase I isoform delta (Homo sapiens, UniProt P48730+P40337); experiment: PROTAC activity at VHL/CK1 delta in human U87 cells assessed as induction of degradation of CK1 delta at 1 uM measured after 6 hrs; assay type: cell-based
Target sequence in this assay (P40337 whole entry, looked up, canonical isoform): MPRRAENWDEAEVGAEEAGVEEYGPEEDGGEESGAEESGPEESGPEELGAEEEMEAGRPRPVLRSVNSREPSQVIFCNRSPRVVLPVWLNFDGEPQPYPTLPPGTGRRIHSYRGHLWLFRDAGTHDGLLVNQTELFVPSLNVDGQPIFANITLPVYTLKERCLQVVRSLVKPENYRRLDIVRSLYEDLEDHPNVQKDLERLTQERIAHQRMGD
Target sequence in this assay (P48730 whole entry, looked up, canonical isoform): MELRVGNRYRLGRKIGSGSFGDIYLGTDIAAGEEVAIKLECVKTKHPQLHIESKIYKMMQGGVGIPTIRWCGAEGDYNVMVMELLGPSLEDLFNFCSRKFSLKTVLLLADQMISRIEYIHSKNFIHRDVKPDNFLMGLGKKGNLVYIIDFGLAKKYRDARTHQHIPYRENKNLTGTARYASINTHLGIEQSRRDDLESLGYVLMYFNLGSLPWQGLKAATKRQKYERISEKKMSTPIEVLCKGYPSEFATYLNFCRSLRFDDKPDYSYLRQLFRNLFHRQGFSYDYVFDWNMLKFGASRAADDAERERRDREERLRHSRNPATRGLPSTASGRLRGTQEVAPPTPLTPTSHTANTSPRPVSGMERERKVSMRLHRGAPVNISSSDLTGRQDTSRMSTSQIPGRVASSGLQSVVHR

[2] = target: T1, von Hippel-Lindau disease tumor suppressor/Casein kinase I isoform delta; experiment: PROTAC activity at VHL/CK1 delta in HEK293 cells assessed as induction of degradation of CK1 delta at 3 uM measured after 1 hrs by Western blot analysis; assay type: cell-based
Target sequence in this assay (P40337 whole entry, looked up, canonical isoform): as the sequence (P40337 whole entry, looked up, canonical isoform) above
Target sequence in this assay (P48730 whole entry, looked up, canonical isoform): as the sequence (P48730 whole entry, looked up, canonical isoform) above

[3] = target: T1, von Hippel-Lindau disease tumor suppressor/Casein kinase I isoform delta; experiment: PROTAC activity at VHL/CK1 delta in human MDA-MB-231 cells assessed as induction of degradation of CK1 delta at 1 uM measured after 6 hrs; assay type: cell-based
Target sequence in this assay (P40337 whole entry, looked up, canonical isoform): as the sequence (P40337 whole entry, looked up, canonical isoform) above
Target sequence in this assay (P48730 whole entry, looked up, canonical isoform): as the sequence (P48730 whole entry, looked up, canonical isoform) above

[4] = target: T1, von Hippel-Lindau disease tumor suppressor/Casein kinase I isoform delta; experiment: PROTAC activity at VHL/HiBit fused CK1 delta in human MV4-11 cells assessed as fold change at 10 uM measured after 6 hrs in presence of 10 uM of MU1742 by Nano-Glo HiBit assay; assay type: cell-based
Target sequence in this assay (P40337 whole entry, looked up, canonical isoform): as the sequence (P40337 whole entry, looked up, canonical isoform) above
Target sequence in this assay (P48730 whole entry, looked up, canonical isoform): as the sequence (P48730 whole entry, looked up, canonical isoform) above

[5] = target: T1, von Hippel-Lindau disease tumor suppressor/Casein kinase I isoform delta; experiment: PROTAC activity at VHL/CK1 delta in human MV4-11 cells assessed as degradation of CK1-delta at 5 to 10 uM incubated for 6 hrs by Western blot analysis; assay type: cell-based; details: dose 5-10 µM
Target sequence in this assay (P40337 whole entry, looked up, canonical isoform): as the sequence (P40337 whole entry, looked up, canonical isoform) above
Target sequence in this assay (P48730 whole entry, looked up, canonical isoform): as the sequence (P48730 whole entry, looked up, canonical isoform) above

[6] = target: T2, von Hippel-Lindau disease tumor suppressor/Casein kinase I isoform epsilon (Homo sapiens) (UniProt P49674+P40337); experiment: PROTAC activity at VHL/CK1 epsilon in HEK293 cells assessed as induction of degradation of CK1 epsilon at 0.3 to 1.0 uM measured after 6 hrs by Western blot analysis relative to control; assay type: cell-based; details: dose 0.3-1 µM
T2 sequence (P40337 whole entry, looked up, canonical isoform): as the sequence (P40337 whole entry, looked up, canonical isoform) above
T2 sequence (P49674 whole entry, looked up, canonical isoform): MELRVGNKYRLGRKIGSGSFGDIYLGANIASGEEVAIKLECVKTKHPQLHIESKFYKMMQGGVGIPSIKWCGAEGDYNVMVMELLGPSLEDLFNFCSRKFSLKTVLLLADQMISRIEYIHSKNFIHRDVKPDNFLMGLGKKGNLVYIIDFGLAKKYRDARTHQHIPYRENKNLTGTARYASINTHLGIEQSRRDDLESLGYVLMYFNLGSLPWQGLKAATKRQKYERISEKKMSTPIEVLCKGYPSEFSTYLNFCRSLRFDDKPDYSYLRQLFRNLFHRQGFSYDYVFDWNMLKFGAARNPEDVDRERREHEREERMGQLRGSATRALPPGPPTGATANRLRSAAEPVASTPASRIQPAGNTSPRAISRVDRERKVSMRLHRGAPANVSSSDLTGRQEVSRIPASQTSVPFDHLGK

[7] = target: T3, von Hippel-Lindau disease tumor suppressor/Casein kinase I isoform alpha (Homo sapiens) (UniProt P48729+P40337); experiment: PROTAC activity at VHL/CK1 alpha in human MV4-11 cells assessed as degradation of CK1-alpha at 10 to 30 uM incubated for 6 hrs by Western blot analysis; assay type: cell-based; details: dose 10-30 µM
T3 sequence (P40337 whole entry, looked up, canonical isoform): as the sequence (P40337 whole entry, looked up, canonical isoform) above
T3 sequence (P48729 whole entry, looked up, canonical isoform): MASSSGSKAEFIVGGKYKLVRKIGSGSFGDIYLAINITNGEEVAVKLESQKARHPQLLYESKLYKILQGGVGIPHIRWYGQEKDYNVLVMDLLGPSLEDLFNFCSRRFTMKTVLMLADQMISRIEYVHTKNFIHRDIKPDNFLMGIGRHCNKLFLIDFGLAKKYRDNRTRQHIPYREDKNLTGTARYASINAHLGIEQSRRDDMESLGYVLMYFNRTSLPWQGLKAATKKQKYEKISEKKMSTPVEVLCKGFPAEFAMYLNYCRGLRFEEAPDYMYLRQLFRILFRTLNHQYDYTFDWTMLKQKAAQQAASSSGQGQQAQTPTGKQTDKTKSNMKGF

[8] = target: T2, von Hippel-Lindau disease tumor suppressor/Casein kinase I isoform epsilon (Homo sapiens); experiment: PROTAC activity at VHL/CK1 epsilon in human MDA-MB-231 cells assessed as induction of degradation of CK1 epsilon at 1 uM measured after 6 hrs; assay type: cell-based
[9] = target: T1, von Hippel-Lindau disease tumor suppressor/Casein kinase I isoform delta; experiment: PROTAC activity at VHL/Hibit-fused CK1 delta in human MV4-11 cells assessed as degradation of CK1-delta incubated for 6 hrs by Nano-Glo HiBiT assay; assay type: cell-based
Target sequence in this assay (P48730 whole entry, canonical isoform): as the sequence (P48730 whole entry, looked up, canonical isoform) above
Target sequence in this assay (P40337 whole entry, canonical isoform): as the sequence (P40337 whole entry, looked up, canonical isoform) above

[10] = target: T1, von Hippel-Lindau disease tumor suppressor/Casein kinase I isoform delta; experiment: PROTAC activity at VHL/Hibit-fused CK1 delta in human MV4-11 cells assessed as degradation of CK1 delta at 5 to 10 uM incubated for 6 hrs by Western blot analysis; assay type: cell-based; details: dose 5-10 µM
Target sequence in this assay (P40337 whole entry, looked up, canonical isoform): as above
Target sequence in this assay (P48730 whole entry, looked up, canonical isoform): as the sequence (P48730 whole entry, looked up, canonical isoform) above

[11] = target: T3, von Hippel-Lindau disease tumor suppressor/Casein kinase I isoform alpha (Homo sapiens); experiment: PROTAC activity at VHL/CK1 alpha in HEK293 cells assessed as induction of degradation of CK1 alpha by measuring maximum efficacy at 5 to 10 uM measured after 6 hrs by Western blot analysis relative to control; assay type: cell-based; details: dose 5-10 µM
[12] = target: T1, von Hippel-Lindau disease tumor suppressor/Casein kinase I isoform delta; experiment: PROTAC activity at VHL/Hibit-fused CK1 delta in human MV4-11 cells assessed as degradation of CK1-delta at 2.5 uM measured upto 12 hrs in presence of cycloheximide by Nano-Glo HiBiT assay relative to control; assay type: cell-based
[13] = target: T3, von Hippel-Lindau disease tumor suppressor/Casein kinase I isoform alpha (Homo sapiens); experiment: PROTAC activity at VHL/CK1 alpha in human MDA-MB-231 cells assessed as induction of degradation of CK1 alpha at 1 uM measured after 6 hrs; assay type: cell-based
[14] = target: T3, von Hippel-Lindau disease tumor suppressor/Casein kinase I isoform alpha (Homo sapiens); experiment: PROTAC activity at VHL/Hibit-fused CK1 alpha in human MV4-11 cells assessed as degradation of CK1-alpha at 10 to 30 uM incubated for 6 hrs by Western blot analysis; assay type: cell-based; details: dose 10-30 µM
MV4-11 = experiment: Cytotoxicity in human MV4-11 cells at >10 uM measured after 72 hrs by alamar blue assay; assay type: functional, cell-based
[15] = target: T1, von Hippel-Lindau disease tumor suppressor/Casein kinase I isoform delta; experiment: PROTAC activity at VHL/HiBit fused CK1 delta in human MV4-11 cells assessed as fold change at 10 uM measured after 6 hrs by Nano-Glo HiBit assay; assay type: cell-based
[16] = target: T1, von Hippel-Lindau disease tumor suppressor/Casein kinase I isoform delta; experiment: PROTAC activity at VHL/Hibit-fused CK1 delta in human MV4-11 cells assessed as degradation of CK1-delta incubated for 6 hrs by Nano-Glo HiBiT assay relative to control; assay type: cell-based
[17] = target: T3, von Hippel-Lindau disease tumor suppressor/Casein kinase I isoform alpha (Homo sapiens); experiment: PROTAC activity at VHL/CK1 alpha in HEK293 cells assessed as induction of degradation of CK1 alpha at 10 uM measured after 6 hrs by Western blot analysis relative to control; assay type: cell-based
[18] = target: T3, von Hippel-Lindau disease tumor suppressor/Casein kinase I isoform alpha (Homo sapiens); experiment: PROTAC activity at VHL/CK1 alpha in HEK293 cells assessed as induction of degradation of CK1 alpha at high concentration measured after 6 hrs by Western blot analysis relative to control; assay type: cell-based
[19] = target: T2, von Hippel-Lindau disease tumor suppressor/Casein kinase I isoform epsilon (Homo sapiens); experiment: PROTAC activity at VHL/CK1 epsilon in HEK293 cells assessed as induction of degradation of CK1 epsilon by measuring maximum efficacy at 5 to 10 uM measured after 6 hrs by Western blot analysis relative to control; assay type: cell-based; details: dose 5-10 µM
[20] = target: T1, von Hippel-Lindau disease tumor suppressor/Casein kinase I isoform delta; experiment: PROTAC activity at VHL/HiBit fused CK1 delta in human MV4-11 cells assessed as fold change at 0.63 uM measured after 6 hrs by Nano-Glo HiBit assay; assay type: cell-based
[21] = target: T1, von Hippel-Lindau disease tumor suppressor/Casein kinase I isoform delta; experiment: PROTAC activity at VHL/HiBit fused CK1 delta in human MV4-11 cells assessed as fold change at 2.5 uM measured after 6 hrs in presence of 10 uM of MU1742 by Nano-Glo HiBit assay; assay type: cell-based
[22] = target: T1, von Hippel-Lindau disease tumor suppressor/Casein kinase I isoform delta; experiment: PROTAC activity at VHL/HiBit fused CK1 delta in human MV4-11 cells assessed as fold change at 2.5 uM measured after 6 hrs in presence of 1 uM of MU1742 by Nano-Glo HiBit assay; assay type: cell-based
[23] = target: T3, von Hippel-Lindau disease tumor suppressor/Casein kinase I isoform alpha (Homo sapiens); experiment: PROTAC activity at VHL/CK1 alpha in human MV4-11 cells assessed as induction of degradation of CK1 alpha by measuring maximum efficacy at 10 uM measured after 12 hrs by HiBit assay relative to control; assay type: cell-based
[24] = target: T1, von Hippel-Lindau disease tumor suppressor/Casein kinase I isoform delta; experiment: PROTAC activity at VHL/HiBit fused CK1 delta in human MV4-11 cells assessed as fold change at 0.63 uM measured after 6 hrs in presence of MLN4924 by Nano-Glo HiBit assay; assay type: cell-based
[25] = target: T1, von Hippel-Lindau disease tumor suppressor/Casein kinase I isoform delta; experiment: PROTAC activity at VHL/CK1 delta in HEK293 cells assessed as induction of degradation of CK1 delta at 3 uM measured after 6 hrs by Western blot analysis relative to control; assay type: cell-based
[26] = target: T2, von Hippel-Lindau disease tumor suppressor/Casein kinase I isoform epsilon (Homo sapiens); experiment: PROTAC activity at VHL/CK1 epsilon in human MV4-11 cells assessed as degradation of CK1 epsilon at 5 to 10 uM incubated for 6 hrs by Western blot analysis; assay type: cell-based; details: dose 5-10 µM
[27] = target: T3, von Hippel-Lindau disease tumor suppressor/Casein kinase I isoform alpha (Homo sapiens); experiment: PROTAC activity at VHL/CK1 alpha in human MV4-11 cells assessed as induction of degradation of CK1 alpha measured after 1 hrs by HiBit assay; assay type: cell-based; details: dose 0.625-10 µM
[28] = target: T2, von Hippel-Lindau disease tumor suppressor/Casein kinase I isoform epsilon (Homo sapiens); experiment: PROTAC activity at VHL/CK1 epsilon in human HEK293 cells at 0.625 to 10 uM in presence of MU1742 by Western blot analysis; assay type: cell-based; details: dose 0.625-10 µM
[29] = target: T1, von Hippel-Lindau disease tumor suppressor/Casein kinase I isoform delta; experiment: PROTAC activity at VHL/CK1 delta in human MV4-11 cells assessed as induction of degradation of CK1 delta by measuring maximum efficacy at 0.625 to 10 uM measured after 9 hrs by HiBit assay relative to control; assay type: cell-based; details: dose 0.625-10 µM

Which Activity [1] does the source give for `Cc1ncsc1-c1ccc(CNC(=O)[C@H]2C[C@H](O)CN2C(=O)[C@H](NC(=O)CCCCCCC(=O)N2CCC(F)(Cn3cnc(-c4ccc(F)cn4)c3-c3ccnc4[nH]ccc34)CC2)C(C)(C)C)cc1` here?
Its Activity is “Active”.

What about the Activity [2] of the same compound?
The Activity was “Active”.

What about the Activity [3] of the same compound?
Its Activity is “Active”.

What about the fold change (FC) [4] of the same compound?
Its fold change (FC) is 1.02.

What about the Activity [5] of the same compound?
Its Activity is “Active”.

And the Activity [6]?
The Activity was 100%.

What about the Activity [7] of the same compound?
Its Activity is “Not active; Compound Showed Weak Degradation”.

And the Activity [8]?
Its Activity is “Active”.

What about the DC50 [9] of the same compound?
Its DC50 is 550 nM.

What about the Activity [10] of the same compound?
Its Activity is “Active”.

What about the Emax [11] of the same compound?
The Emax was greater than 50%.

What about the Activity [12] of the same compound?
Its Activity is 90%.

What about the Activity [13] of the same compound?
The Activity was “inactive”.

And the Activity [14]?
The Activity was “Not active; Compound Showed Weak Degradation”.

And the Activity (MV4-11)?
The Activity was “Active”.

And the fold change (FC) [15]?
The fold change (FC) was 0.3.

What about the Emax [16] of the same compound?
The Emax was 70.1%.

And the Activity [17]?
Its Activity is “Not active; Compound Showed Weak Degradation”.

And the Activity [18]?
The Activity was “Not active; Compound Showed Weak Degradation”.

And the Emax [19]?
The Emax was greater than 50%.

And the fold change (FC) [20]?
Its fold change (FC) is 0.49.

And the fold change (FC) [21]?
Its fold change (FC) is 1.19.

And the fold change (FC) [22]?
The fold change (FC) was 0.97.

What about the Emax [23] of the same compound?
Its Emax is 50%.

What about the fold change (FC) [24] of the same compound?
Its fold change (FC) is 0.82.

What about the Activity [25] of the same compound?
Its Activity is 100%.

And the Activity [26]?
Its Activity is “Active”.

What about the Activity [27] of the same compound?
The Activity was “Dose-dependent-effect”.

And the Activity [28]?
The Activity was “inactive”.

And the Emax [29]?
Its Emax is 75%.
